Assay results published in patent publication US20250270198A1, “PYRIDONE COMPOUNDS AS TRPA1 INHIBITORS” (D. E. Shaw Research, LLC, priority 2022, published 2025).

The compounds below were run against human TRPA1 channel (Homo sapiens (Human), UniProt O75762) (assay: TRPA1 inhibitor activity, automated patch clamp (SyncroPatch)). Conditions: CHO cells inducibly expressing human TRPA1; currents elicited by carvacrol (300 μM), holding potential −60 mV; Table 4.
Assay type: cell-based
Description: This assay was used to evaluate the disclosed compounds' inhibition activities against the human TRPA1 channel.
CHO cells inducibly expressing human TRPA1 were grown in DMEM containing 10% heat-inactivated FBS, 1 mM Sodium Pyruvate, 2 mM L-Glutamine, Zeocin (100 μg/ml) and Blasticidin (10 μg/ml). Expression was induced by addition of Doxycycline (1 μg/ml) 24 hours before experiments. Cells used for electrophysiology were plated in plastic culture flasks and grown at 37° C. in a 5% CO2-humidified tissue culture incubator per ChanPharm SOP. Stocks were maintained in cryogenic storage.
The cells were bathed in an extracellular solution containing 80 mM NaCl, 60 mM NMDG, 4 mM KCl, 2 mM CaCl2), 6 mM MgCl2, 5 mM Glucose. 10 mM HEPES, 3 mM HEDTA; pH adjusted to 7.4 with NaOH; 305-310 mOsm. All compounds were dissolved in DMSO at 30 mM. The internal solution contained 10 mM CsCl, 110 mM CsF, 10 mM NaCl, 10 mM EGTA, 10 mM HEPES, 4 mM MgATP, 0.25 mM NaGTP, 4 mM BAPTA; pH adjusted to 7.2 with CsOH; 285-290 mOsm. Compound stock solutions were freshly diluted with external solution to concentrations of 3 nM, 10 nM 30 nM, 100 nM, 300 nM, 1 μM, 3 μM, 10 μM, and 30 μM. The highest content of DMSO (0.1%) was present at 30 μM.
All experiments were performed at room temperature. Each cell acted as its own control. In preparation for a current recording session, intracellular solution (see above) was loaded into the intracellular compartments of the automated patch clamp platform SyncroPatch (Nanion) chip and the cell suspension was pipetted into the extracellular compartments. After establishment of a whole-cell configuration, membrane current recordings and compound application were enabled by means of the SyncroPatch. TRPA1 currents were elicited by application of carvacrol (300 μM) at a constant holding potential of −60 mV (see Table A below).
To determine IC50 values, AUC and peak values, obtained in the presence of a given compound concentration, were normalized to control values in absence of compound. Using DataControl384 (Nanion's proprietary software), IC50 values were derived by fitting the normalized data to the Hill equation.

Chain of human TRPA1 channel (O75762 whole entry): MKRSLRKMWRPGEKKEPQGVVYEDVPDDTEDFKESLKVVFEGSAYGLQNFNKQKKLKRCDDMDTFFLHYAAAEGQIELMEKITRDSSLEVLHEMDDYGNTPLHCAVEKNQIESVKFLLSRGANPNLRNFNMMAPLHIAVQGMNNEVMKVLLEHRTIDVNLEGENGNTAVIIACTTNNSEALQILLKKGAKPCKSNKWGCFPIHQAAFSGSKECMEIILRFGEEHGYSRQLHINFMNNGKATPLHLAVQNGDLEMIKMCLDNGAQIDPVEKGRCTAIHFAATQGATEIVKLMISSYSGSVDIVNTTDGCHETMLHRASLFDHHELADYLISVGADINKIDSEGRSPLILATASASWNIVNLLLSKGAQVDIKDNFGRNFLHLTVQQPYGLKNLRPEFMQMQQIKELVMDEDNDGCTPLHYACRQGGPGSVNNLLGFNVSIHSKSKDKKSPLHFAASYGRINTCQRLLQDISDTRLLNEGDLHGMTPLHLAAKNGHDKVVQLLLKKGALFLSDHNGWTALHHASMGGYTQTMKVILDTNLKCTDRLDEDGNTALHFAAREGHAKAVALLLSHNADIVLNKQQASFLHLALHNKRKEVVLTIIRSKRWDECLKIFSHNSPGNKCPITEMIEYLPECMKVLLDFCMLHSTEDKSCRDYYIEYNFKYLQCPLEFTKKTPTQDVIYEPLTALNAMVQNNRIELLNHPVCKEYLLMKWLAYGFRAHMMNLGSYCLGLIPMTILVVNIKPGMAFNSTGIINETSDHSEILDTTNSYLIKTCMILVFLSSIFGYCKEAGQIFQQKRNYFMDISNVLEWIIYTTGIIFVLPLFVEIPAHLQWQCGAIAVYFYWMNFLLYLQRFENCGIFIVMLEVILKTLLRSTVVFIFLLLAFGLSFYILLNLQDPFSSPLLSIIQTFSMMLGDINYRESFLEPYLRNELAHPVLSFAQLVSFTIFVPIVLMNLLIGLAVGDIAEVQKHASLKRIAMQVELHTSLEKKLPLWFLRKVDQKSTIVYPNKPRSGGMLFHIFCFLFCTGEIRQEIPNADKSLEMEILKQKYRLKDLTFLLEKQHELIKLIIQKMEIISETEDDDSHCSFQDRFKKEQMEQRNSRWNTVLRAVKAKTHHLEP

Row | SMILES | IC50 [nM]
1 | O=c1c(C(F)(F)F)cccn1Cc1nc(CCc2ccc(Cl)cc2)no1 [Compound 7, 1-((3-(4-chlorophenethyl)-1,2,4-oxadiazol-5-yl)methyl)-3-(trifluoromethyl)pyridin-2(1H)-one] | < 10000
2 | Cc1c(CO)ccn(Cc2nc(CCc3ccc(Cl)cc3)no2)c1=O [Compound 11, 1-((3-(4-chlorophenethyl)-1,2,4-oxadiazol-5-yl)methyl)-4-(hydroxymethyl)-3-methylpyridin-2(1H)-one] | < 3000
3 | C=Cc1ccn(Cc2nc(CCc3ccc(Cl)cc3)no2)c(=O)c1C [Compound 13, 1-((3-(4-chlorophenethyl)-1,2,4-oxadiazol-5-yl)methyl)-3-methyl-4-vinylpyridin-2(1H)-one] | < 3000
4 | COC(=O)c1cc(C)c(=O)n(Cc2nc(CCc3ccc(Cl)cc3)no2)c1 [Compound 10, methyl 1-((3-(4-chlorophenethyl)-1,2,4-oxadiazol-5-yl)methyl)-5-methyl-6-oxo-1,6-dihydropyridine-3-carboxylate] | < 3000
5 | Cc1cc(CO)cn(Cc2nc(CCc3ccc(Cl)cc3)no2)c1=O [Compound 16, 1-((3-(4-chlorophenethyl)-1,2,4-oxadiazol-5-yl)methyl)-5-(hydroxymethyl)-3-methylpyridin-2(1H)-one] | < 3000
6 | Cc1c(Br)ccn(Cc2nc(CCc3ccc(Cl)cc3)no2)c1=O [Compound 12, 4-bromo-1-((3-(4-chlorophenethyl)-1,2,4-oxadiazol-5-yl)methyl)-3-methylpyridin-2(1H)-one] | < 3000
7 | Cc1nccn(Cc2nc(CCc3ccc(Cl)cc3)no2)c1=O [Compound 25, 1-((3-(4-chlorophenethyl)-1,2,4-oxadiazol-5-yl)methyl)-3-methylpyrazin-2(1H)-one] | < 3000
8 | Cc1cc(CC(N)=O)cn(Cc2nc(CCc3ccc(Cl)cc3)no2)c1=O [Compound 20, 2-(1-((3-(4-chlorophenethyl)-1,2,4-oxadiazol-5-yl)methyl)-5-methyl-6-oxo-1,6-dihydropyridin-3-yl)acetamide] | < 10000
9 | Cc1cccn(Cc2nc(CCc3ccc(Cl)cc3)no2)c1=O [Compound 1, 1-((3-(4-chlorophenethyl)-1,2,4-oxadiazol-5-yl)methyl)-3-methylpyridin-2(1H)-one] | < 10000

Continued, values first:

Row | IC50 [nM] | SMILES
10 | < 1000 | CNC(=O)c1cc(C)c(=O)n(Cc2nc(CCc3ccc(Cl)cc3)no2)c1 [Compound 9, 1-((3-(4-chlorophenethyl)-1,2,4-oxadiazol-5-yl)methyl)-N,5-dimethyl-6-oxo-1,6-dihydropyridine-3-carboxamide]
11 | < 1000 | Cc1ccc(Cl)c(=O)n1Cc1nc(C[C@H](O)c2ccc(Cl)cc2)no1 [Compound 34, (S)-3-chloro-1-((3-(2-(4-chlorophenyl)-2-hydroxyethyl)-1,2,4-oxadiazol-5-yl)methyl)-6-methylpyridin-2(1H)-one]
12 | < 1000 | Cc1nc(Cl)cn(Cc2nc(CCc3ccc(Cl)cc3)no2)c1=O [Compound 24, 5-chloro-1-((3-(4-chlorophenethyl)-1,2,4-oxadiazol-5-yl)methyl)-3-methylpyrazin-2(1H)-one]
13 | < 3000 | Cc1c(-c2cn[nH]c2)ccn(Cc2nc(CCc3ccc(Cl)cc3)no2)c1=O [Compound 15, 1-((3-(4-chlorophenethyl)-1,2,4-oxadiazol-5-yl)methyl)-3-methyl-4-(1H-pyrazol-4-yl)pyridin-2(1H)-one]
14 | < 3000 | Cc1cc(Cl)cn(Cc2nc(CCc3ccc(Cl)cc3)no2)c1=O [Compound 5, 5-chloro-1-((3-(4-chlorophenethyl)-1,2,4-oxadiazol-5-yl)methyl)-3-methylpyridin-2(1H)-one]
15 | < 1000 | Cc1cc(CC#N)cn(Cc2nc(CCc3ccc(Cl)cc3)no2)c1=O [Compound 19, 2-(1-((3-(4-chlorophenethyl)-1,2,4-oxadiazol-5-yl)methyl)-5-methyl-6-oxo-1,6-dihydropyridin-3-yl)acetonitrile]
16 | < 1000 | Nc1c(Cl)c(F)n(Cc2nc(C[C@H](O)c3ccc(Cl)cc3)no2)c(=O)c1Cl [Compound 28, (S)-4-amino-3,5-dichloro-1-((3-(2-(4-chlorophenyl)-2-hydroxyethyl)-1,2,4-oxadiazol-5-yl)methyl)-6-fluoropyridin-2(1H)-one]
17 | < 1000 | Cc1cn(Cc2nc(C[C@H](O)c3ccc(Cl)cc3)no2)c(=O)c(C)n1 [Compound 32, (S)-1-((3-(2-(4-chlorophenyl)-2-hydroxyethyl)-1,2,4-oxadiazol-5-yl)methyl)-3,5-dimethylpyrazin-2(1H)-one]
18 | < 1000 | Cc1ncc(C)n(Cc2nc(C[C@H](O)c3ccc(Cl)cc3)no2)c1=O [Compound 31, (S)-1-((3-(2-(4-chlorophenyl)-2-hydroxyethyl)-1,2,4-oxadiazol-5-yl)methyl)-3,6-dimethylpyrazin-2(1H)-one]
19 | < 300 | O=c1c(Cl)nc(Br)cn1Cc1nc(C[C@H](O)c2ccc(Cl)cc2)no1 [Compound 21, (S)-5-bromo-3-chloro-1-((3-(2-(4-chlorophenyl)-2-hydroxyethyl)-1,2,4-oxadiazol-5-yl)methyl)pyrazin-2(1H)-one]
20 | < 1000 | N#Cc1cc(Br)c(=O)n(Cc2nc(CCc3ccc(Cl)cc3)no2)c1 [Compound 3, 5-bromo-1-((3-(4-chlorophenethyl)-1,2,4-oxadiazol-5-yl)methyl)-6-oxo-1,6-dihydropyridine-3-carbonitrile]
21 | < 1000 | Cc1c(N)ncn(Cc2nc(C[C@H](O)c3ccc(Cl)cc3)no2)c1=O [Compound 33, (S)-6-amino-3-((3-(2-(4-chlorophenyl)-2-hydroxyethyl)-1,2,4-oxadiazol-5-yl)methyl)-5-methylpyrimidin-4(3H)-one]
22 | < 1000 | Cc1nc(C)c(=O)n(Cc2nc(CCc3ccc(Cl)cc3)no2)c1C [Compound 23, 1-((3-(4-chlorophenethyl)-1,2,4-oxadiazol-5-yl)methyl)-3,5,6-trimethylpyrazin-2(1H)-one]
23 | < 1000 | Cc1cc(C#N)cn(Cc2nc(CCc3ccc(Cl)cc3)no2)c1=O [Compound 2, 1-((3-(4-chlorophenethyl)-1,2,4-oxadiazol-5-yl)methyl)-5-methyl-6-oxo-1,6-dihydropyridine-3-carbonitrile]

Same assay, conditions: CHO cells inducibly expressing human TRPA1; currents elicited by carvacrol (300 μM), holding potential −60 mV; Table 5

Row | IC50 [nM] | SMILES
24 | < 1000 | Cc1ncc(Cl)c(=O)n1Cc1nc(C[C@H](O)c2ccc(Cl)cc2)no1 [Compound 69, (S)-5-chloro-3-((3-(2-(4-chlorophenyl)-2-hydroxyethyl)-1,2,4-oxadiazol-5-yl)methyl)-2-methylpyrimidin-4(3H)-one]
25 | < 1000 | NC(=O)c1ncn(Cc2nc(C[C@H](O)c3ccc(Cl)cc3)no2)c(=O)c1Cl [Compound 62, (S)-5-chloro-1-((3-(2-(4-chlorophenyl)-2-hydroxyethyl)-1,2,4-oxadiazol-5-yl)methyl)-6-oxo-1,6-dihydropyrimidine-4-carboxamide]
26 | < 1000 | O=c1c(Cl)c(-c2cn[nH]c2)ccn1Cc1nc(C[C@H](O)c2ccc(Cl)cc2)no1 [Compound 74, (S)-3-chloro-1-((3-(2-(4-chlorophenyl)-2-hydroxyethyl)-1,2,4-oxadiazol-5-yl)methyl)-4-(1H-pyrazol-4-yl)pyridin-2(1H)-one]
27 | < 100 | O=c1c(Cl)c(Cl)ncn1Cc1nc(C[C@H](O)c2ccc(Cl)cc2)no1 [Compound 64, (S)-5,6-dichloro-3-((3-(2-(4-chlorophenyl)-2-hydroxyethyl)-1,2,4-oxadiazol-5-yl)methyl)pyrimidin-4(3H)-one]
28 | < 300 | Cc1ncn(Cc2nc(C[C@H](O)c3ccc(Cl)cc3)no2)c(=O)c1C [Compound 68, (S)-3-((3-(2-(4-chlorophenyl)-2-hydroxyethyl)-1,2,4-oxadiazol-5-yl)methyl)-5,6-dimethylpyrimidin-4(3H)-one]
29 | < 300 | Nc1ncn(Cc2nc(C[C@H](O)c3ccc(Cl)cc3)no2)c(=O)c1Cl [Compound 72, (S)-6-amino-5-chloro-3-((3-(2-(4-chlorophenyl)-2-hydroxyethyl)-1,2,4-oxadiazol-5-yl)methyl)pyrimidin-4(3H)-one]
